IC50 and Activity data for one compound are collected here from ChEMBL document CHEMBL5505993, “Identification of a ferritinophagy inducer via sinomenine modification for the treatment of colorectal cancer” (Eur J Med Chem, 2024).

Active and inactive are the calls of the source. The rule behind the calls is not given here.

For one data set, the system named is HT-29. In words: Cytotoxicity against human HT-29 cells assessed as inhibition of cell growth incubated for 48 hrs by CCK-8 assay. The settings on record: HT-29, 48 h. The format is functional, cell-based.
Data set [1] has as its system HCT-116. In words: Induction of ferroptosis in human HCT-116 cells assessed as increase in intracellular lipid ROS accumulation at 5 to 20 uM incubated for 12 hrs by C11 BODIPY probe based flow cytometry. The format is functional, cell-based. The settings on record: dose 5-20 µM. In general terms: A flow cytometer gives signals particle by particle.
The subject of data set [2] is HCT-116. In words: Antitumor activity against human HCT-116 cells xenografted in BALB/c mouse assessed as reduction in tumor density at 30 mg/kg,ip administrated daily for 14 days by hematoxylin and eosin staining based microscopic analysis. The format is functional, organism-based. To be noted: time 14.0 day.
The nature of data set [3]: Toxicity in BALB/c mouse xenografted with human HCT-116 cells assessed as histopathological changes in heart at 60 mg/kg,ip administrated daily for 14 days by hematoxylin and eosin staining based microscopic analysis. Format: organism-based. To be noted: in vivo, 336 h, time 14 day. In general terms: A xenograft is tissue or cells of one species grown in another, often human tumour cells in immunodeficient mice.

Turning to `C=C(Cl)C(=O)NCCCCCCCCCCCC(=O)Oc1c(OC)ccc2c1[C@@]13CCN(C)[C@@H](C2)[C@H]1C=C(OC)C(=O)C3`, in the data set with HT-29, the IC50 was determined as 6.71 µM. For the same compound, the result with HCT-116 [1] and with HCT-116 [2] was Active. For the same compound, the Activity entry in data set [3] is reported as “Non-Toxic”.

The IC50 is the concentration that inhibits the measured activity by half.
